What all share (format): cell-based
Data set [1] has as its system macrophages (Interleukin-1 release). Description: IL-1 released by macrophages (Elisa sandwich test on culture supernatant). From the text:
It is known, however, that several factors such as cytokines and growth factors play important roles in the process of wound healing. These factors include the epidermal growth factor (EGF), the fibroblastic growth factor (FGF), the platelet-derived growth factor (PDGF), and the beta transforming growth factor (beta-TGF). In addition to these factors, cytokines such as interleukin-l (IL-1), the tumor necrosis factor (TNF), and interleukin-6 (IL-6) also play important roles in the process of wound healing. These factors act by different methods, in combination with other materials, to induce proliferation of dermal and epidermal elements such as fibroblasts. […] Actually, IL-1 affects the differentiation, growth, and activity of many cellular types in the organism. Within the immune system, IL-1 acts as a second signal that is necessary to activate the IL-2 circuit by the activated T lymphocytes. It also potentiates the action of other cytokines. It contributes to the differentiation of B lymphocytes and to their production of immunoglobulins. It modifies vascular permeability by the release of mediators by the endothelial cells and induces the appearance at their surface of a factor that has a procoagulating activity. Owing to its proliferative effect on the fibroblasts, it intervenes in the repair phase.
To show the effect of activating macrophages by sophorolipids, an Elisa sandwich test was carried out on the supernatant of a culture medium that contained macrophages. […] A negative test was also used.

For another data set, the system named is fibroblasts. The data set can be described thus: Cytotoxicity on primocultures at 24 hours (neutral red), fibroblasts. From the text:
(§1) Their innocuousness and their activity make it possible to use them in other stages of healing, namely granulation and epithelialization, by modulating their concentration in the formulas of products that are used. This is possible only because of the low cytotoxicity of sophorolipids, as Tables 3A and 3B show. The toxicity of the products of the invention has been evaluated with a viability test with neutral red on two cellular types of the skin, cells L929 and other fibroblasts of the dermis and cells NCTC 2544 and keratinocytes of the epidermis. The results, which are presented in Tables 3A, 3B, correspond to the rates of cellular viability that are expressed in % relative to the negative test.

The test system of the next data set is melanocytes. The data set can be described thus: Melanine dosage in melanocytes after 7 and 14 days. The note with it: for activity at 100 µM / activity at 10 µM / activity at 1 µM: Melanocyte, read-out: Melanine content; for activity at 100 µM: 10^-4M; for activity at 10 µM: 10^-5M; for activity at 1 µM: 10^-6M. How it is done:
It is noted that cutaneous ageing causes epidermal functions to slow down: melanine no longer comes to the surface of the skin in a homogeneous manner and concentrates inside certain cells, and brown spots appear mainly on the hands, the forearms, and the neckline. […] Residues are picked up in PBS/triton X-100 (1% v/v) and sounds for 30 seconds. The cellular lysate is ultracentrifuged (105,000 rpm for 40 minutes at +4° C.). The residue that is obtained is then picked up in 1 ml of PBS. The proportion of protein is determined by the calorimetric method (Biorad) and then adjusted to 1.5 mg/ml.
100-(content of melanine of the tested product×100/content of melanine TN)
TN corresponds to the negative test.
As a result, again, the galenical forms are diverse. An example of an anti-spot cream for hands that is also used in cosmetics or in therapeutics is provided below, however: […]

Data set [2] can be described thus: Cytotoxicity on L929 at 24 hours (neutral red). The settings on record: mouse, l929 cells, read-out: Cellular Viability Rate; for viability at 24 h, 50000 µM: 5.10-2M; for viability at 24 h, 5000 µM: 5.10-3M; for viability at 24 h, 500 µM: 5.10-4M; for viability at 24 h, 10000 µM: 10^-2M; for viability at 24 h, 1000 µM: 10^-3M; for viability at 24 h, 100 µM: 10^-4M; for viability at 24 h, 10 µM: 10^-5M.
Excerpt: as §1

Read-outs that look alike come from different tables or passages of the source.

For the compound `CC(CCCCCC/C=C\CCCCCCCC(=O)O)O[C@@H]1O[C@H](CO)[C@@H](O)[C@H](O)[C@H]1O[C@@H]1O[C@H](CO)[C@@H](O)[C@H](O)[C@H]1O` (stereo partly shown) [Sophorolipid in Acid Form], in data set [1] (10^-4M), the “Concentrations IL-1 released by macrophages” value (“Concentrations IL-1 released” for short) stood at 795.6 pg/mL and the “action on IL-1 release relative to that of lipopolysaccharides (fold)” value is on record as “twice”. In data set [1] (10^-5M), the “Concentrations IL-1 released” value worked out at 500.8 pg/mL and the “action on IL-1 release compared with lipopolysaccharides” value is reported as “equivalent to that of lipopolysaccharides”. In data set [1] (10^-6M), the “Concentrations IL-1 released” value turned out to be 287.2 pg/mL. Besides, the “times less toxic than the lactone form” value in the data set with fibroblasts (Tables 3A and 3B) is recorded as 10 times. In addition, the “Cellular Viability Rate” value in the data set on fibroblasts (fibroblasts, 24 hours, 10^-6M, 1 µM) is 99.65 % relative to TN. In the data set on melanocytes (168 h, at day 7), the activity at 100 µM stood at 56.2%, the activity at 10 µM is 65.8% and the activity at 1 µM was found to be 93.6%. In the data set on melanocytes (336 h, at day 14), the activity at 100 µM came out at 56.8%, the activity at 10 µM was found to be 86.4% and the activity at 1 µM came out at 95.4%. The “effect on synthesis of melanine” value in the data set on melanocytes (unlike linolenic acid) was “reduction in the synthesis of melanine”. Also, in data set [2], the viability (usually a read-out of living cells in per cent, often relative to untreated cells) at 24 h, 50000 µM amounted to 5.47%; the viability at 24 h, 5000 µM was determined as 7.62%; the viability at 24 h, 500 µM is 99.2%; the viability at 24 h, 10000 µM worked out at 6.18%. In addition, in data set [2], the viability at 24 h, 1000 µM was 100%; the viability at 24 h, 100 µM was found to be 102%; the viability at 24 h, 10 µM amounted to 101%.
For `CC1CCCCCC/C=C\CCCCCCCC(=O)O[C@H]2[C@H](O)[C@@H](O)[C@H](O[C@H]3[C@H](O1)O[C@H](CO)[C@@H](O)[C@@H]3O)O[C@@H]2CO` (stereo partly shown) [Sophorolipid in Lactone Form], the “Concentrations IL-1 released” value in data set [1] (10^-4M) amounted to 255.4 pg/mL. The “Concentrations IL-1 released” value in data set [1] (10^-5M) worked out at 385.9 pg/mL. Moreover, in data set [1] (10^-6M), the “Concentrations IL-1 released” value worked out at 345.1 pg/mL. Also, in data set [2], the viability at 24 h, 50000 µM came out at 5.65%; the viability at 24 h, 5000 µM turned out to be 5.44%; the viability at 24 h, 500 µM came out at 6.63%; the viability at 24 h, 10000 µM amounted to 5.26%. For the same compound, in data set [2], the viability at 24 h, 1000 µM was found to be 5.71%; the viability at 24 h, 100 µM is 87%; the viability at 24 h, 10 µM turned out to be 96.5%.

These data come from patent US5981497A, “Utilization of sophorolipids as therapeutically active substances or cosmetic products, in particular for the treatment of the skin” (Institut Francais du Petrole, priority 1995, dated 1999).
